How the values were obtained:
[1] = design: key: “+” indicates binding confirmed; “-” indicates no binding; “~” indicates potential binding with absence of precursor band; settings: Table S2; ref SI [7], [9], [10]; cited from earlier work
Description: page 11: Table S2: Summary of the ability of CDAs to bind cell wall synthesis precursors, as well as tendency to induce membrane depolarisation. “+” indicates binding, “-” indicates no binding, “n.d.” indicates binding has not been determined. * indicates binding occurs in the presence of phosphatidylglycerol. Peptide C -P C-PP Lipid I Lipid II Membrane 55 55 Depolarisation Daptomycin [1]–[4] + * + * n.d. + * + A54145 [5] n.d. n.d. n.d. n.d. + Tsushimycin [4] + n.d. n.d. n.d. n.d. Laspartomycin [6] + n.d. n.d. n.d. - Friulimicin [7] + - - - - Taromycin n.d. n.d. n.d. n.d. n.d. Amphomycin [9], ...

[2] = tail-to-side-chain lactamisation of side-chain-protected peptide (Dap2 beta-NH2 + C-terminal Pro), HATU/DIPEA, microwave; settings: the molecule shown is the open-chain precursor; 28-membered ring; DCM; 6.0 mM; 70.0 °C; 1.0 h
[3] = head-to-tail type lactamisation of side-chain-protected branched depsipeptide (Gly10 N-terminus of ester branch + C-terminal Pro9), HATU/DIPEA (pH ~10), microwave; settings: the molecule shown is the open-chain precursor, DCM, 6.0 mM, 70.0 °C, 1.0 h

Compound	Lipid I binding (reported) [1]	ring closure, overall yield ([3]; 31-membered ring) [%]	further results
Amphomycin	-		
CCCCCCCCCC(=O)N[C@@H](CC(=O)OC(C)(C)C)C(=O)N[C@@H](CN)C(=O)N[C@@H](C(=O)N[C@@H](CCCCNC(=O)OC(C)(C)C)C(=O)N[C@@H](CC(=O)OC(C)(C)C)C(=O)N[C@@H](CC(=O)OC(C)(C)C)C(=O)N(CC(=O)N[C@H](CC(=O)OC(C)(C)C)C(=O)N[C@H](C(=O)N1CCC[C@H]1C(=O)O)C(C)C)Cc1ccc(OC)cc1OC)C(C)C			ring closure, overall yield [2]: 1.3%
CCCCCCCCCC(=O)NC[C@@H](C)C(=O)NCC(=O)N[C@H](CCC(=O)OC(C)(C)C)C(=O)N[C@@H](Cc1ccc(OC(C)(C)C)cc1)C(=O)N[C@H](C(=O)N[C@@H](C(=O)N[C@@H](CC(=O)OC(C)(C)C)C(=O)N[C@@H](CC(=O)OC(C)(C)C)C(=O)N1CCC[C@H]1C(=O)O)[C@H](C)CC)[C@@H](C)OC(=O)CN(C)C(=O)[C@H](CCC(=O)OC(C)(C)C)NC(=O)CNC(=O)[C@@H](CCC(=O)OC(C)(C)C)NC(=O)CN		0.3	
Friulimicin	-		
CCCCCCCCCC(=O)NC[C@@H](C)C(=O)NCC(=O)N[C@H](CCC(=O)OC(C)(C)C)C(=O)N[C@@H](Cc1ccc(OC(C)(C)C)cc1)C(=O)N[C@H](C(=O)N[C@@H](C(=O)N[C@@H](CC(=O)OC(C)(C)C)C(=O)N[C@@H](CC(=O)OC(C)(C)C)C(=O)N1CCC[C@H]1C(=O)O)[C@H](C)CC)[C@@H](C)OC(=O)CN(C)C(=O)[C@H](CC(=O)OC(C)(C)C)NC(=O)CNC(=O)[C@H](CC(=O)OC(C)(C)C)NC(=O)CN		0.3	
CCCCCCCCCC(=O)NC[C@@H](C)C(=O)NCC(=O)N[C@H](CCC(=O)OC(C)(C)C)C(=O)N[C@@H](Cc1ccc(OC(C)(C)C)cc1)C(=O)N[C@H](C(=O)N[C@@H](C(=O)N[C@@H](CC(=O)OC(C)(C)C)C(=O)N[C@@H](CC(=O)OC(C)(C)C)C(=O)N1CCC[C@H]1C(=O)O)[C@H](C)CC)[C@@H](C)OC(=O)CN(C)C(=O)[C@H](CC(=O)OC(C)(C)C)NC(=O)[C@H](CC(=O)OC(C)(C)C)NC(=O)CN			ring closure, overall yield ([3]; 28-membered ring): 0.4%

— article PMC12650660, “Novel Synthetic Strategies Towards Analogues of Cadaside and Malacidin Antibiotic Peptides” (Biomolecules, 2025)
